{"source": "patent US20130324461A1", "about": "“METHODS AND COMPOSITIONS FOR PREVENTING OR TREATING OBESITY” (priority 2010, published 2013)", "assay_type_in_all_cases": "in vivo", "key": {"serum leptin": {"tested_on": "serum leptin", "test": "Serum leptin levels by ELISA after A2AR agonist injection (Example 4, FIG. 4)", "settings": "8 week old female C57BL/6 mice, 0.5 mg/kg s.c., after 1 and 2 h, p<0.05", "experimental": "To elucidate the mechanism by which A2AR agonists reduce weight gain, serum leptin levels were quantified in mice treated with an A2AR agonist. 8 week old Female C57BL/6 mice received subcutaneous injection of the A2AR agonist CGS21680 (0.5 mg/kg). After 1 and 2 h, serum leptin levels were measured by ELISA. […] The data shown in FIG. 4 represent average±SD (n=4). The statistical significance was calculated by Student's t-test: *, p<0.05."}, "[1]": {"test": "Body weight of mice on low-fat diet, treated or untreated with A2AR agonist CGS21680 (Example 3, FIG. 3 right panel)", "experimental": "Mice were untreated or treated with the A2AR agonist CGS21680 (Tocris) at different time points. CGS21680 (Tocris) was injected s.c. at a dose of 0.5 mg/kg daily either from week 9 to week 13, from week 13 to week 19, or from week 9 to week 19, as indicated in the FIG. 3 legends. Male mice (8 mice per group) were fed a high-fat diet (where 60% of calories are derived from fat) or low-fat diet (where 10% of calories are derived from fat) and the weight of the mice was measured. Special diets were obtained from Research Diets (New Brunswick, N.J.). One group of mice received no A2AR agonist at all (represented by diamonds in the graphs of FIG. 4); another group of mice was received CGS21680 only from week 9 to 13 (triangles); another group of mice received CGS21680 only from week 13 to 19 (squares); another group of mice received CGS21680 from week 9 to 19 (crosses). […] Mice in the group that received no A2AR agonist at all (diamonds) gained a small amount of weight reaching up to ˜35 g by week 19. This is much less than the weight reached by mice on the high-fat diet (˜50 g). […] Mice that were not injected with from week 9 to 13 (squares) did gain weight by week 13."}, "[2]": {"test": "Body weight of mice on high-fat diet, treated or untreated with A2AR agonist CGS21680 (Example 3, FIG. 3 left panel)", "experimental": "Mice were untreated or treated with the A2AR agonist CGS21680 (Tocris) at different time points. CGS21680 (Tocris) was injected s.c. at a dose of 0.5 mg/kg daily either from week 9 to week 13, from week 13 to week 19, or from week 9 to week 19, as indicated in the FIG. 3 legends. Male mice (8 mice per group) were fed a high-fat diet (where 60% of calories are derived from fat) or low-fat diet (where 10% of calories are derived from fat) and the weight of the mice was measured. Special diets were obtained from Research Diets (New Brunswick, N.J.). One group of mice received no A2AR agonist at all (represented by diamonds in the graphs of FIG. 4); another group of mice was received CGS21680 only from week 9 to 13 (triangles); another group of mice received CGS21680 only from week 13 to 19 (squares); another group of mice received CGS21680 from week 9 to 19 (crosses). […] Some mice in the group that received no A2AR agonist at all (diamonds) almost doubled their weight between weeks 9 and 19, reaching up to 50 g total weight. […] Mice that were not injected from week 9 to 13 (squares) reached almost 40 g of weight by week 13."}, "[3]": {"test": "Weight gain of mice on high-fat diet treated with various A2AR agonists (Example 5, FIG. 5)", "settings": "male C57BL/6 mice", "experimental": "Mice receiving a high-fat diet were treated with the A2AR agonists 2-[4-(2-aminoethylaminocarbonylethyl)phenylethylamino]-5′-N-ethylcarboxamidoadenosine (APEC) bistrifluoroacetic acid or 2 5′-N-ethylcarboxamidoadenosine (NECA). Male C57BL/6 mice (n=5) were provided a high-fat diet beginning at day 0. Also beginning on day 0, the mice were treated with daily subcutaneous injection of A2AR agonist. APEC was administered at 0.25 mg/kg/day, and NECA at 0.02 mg/kg/day."}}}
{"smiles": "CCNC(=O)[C@H]1O[C@@H](n2cnc3c(N)nc(NCCc4ccc(CCC(=O)O)cc4)nc32)[C@H](O)[C@@H]1O", "note": "[CGS21680, 3-[4-[2-[[6-amino-9-[(2R,3R,4S,5S)-5-(ethylcarbamoyl)-3,4-dihydroxy-oxolan-2-yl]purin-2-yl]amino]ethyl]phenyl]propanoic acid]", "values": [{"measurement": "serum leptin levels", "setting": "serum leptin", "result": "significantly increased"}, {"measurement": "weight gain", "setting": "[1]; male mice, low-fat diet (10% of calories from fat), 0.5 mg/kg s.c. daily from week 9 to week 19", "result": "gained very little weight"}, {"measurement": "weight gain until week 13", "setting": "[1]; male mice, low-fat diet, 0.5 mg/kg s.c. daily only from week 9 to 13", "result": "gained essentially no weight"}, {"measurement": "further weight gain after start of injections", "setting": "[1]; male mice, low-fat diet, 0.5 mg/kg s.c. daily only from week 13 to 19", "result": "essentially no more weight gain"}, {"measurement": "effect on weight gain (overall statement)", "setting": "[1]; mice on low fat diet, 0.5 mg/kg s.c. daily", "result": "prevented or limited weight gain"}, {"measurement": "weight gain", "setting": "[2]; male mice, high-fat diet (60% of calories from fat), 0.5 mg/kg s.c. daily from week 9 to week 19", "result": "gained little or no weight"}, {"measurement": "weight gain between weeks 9 and 13", "setting": "[2]; male mice, high-fat diet, 0.5 mg/kg s.c. daily only from week 9 to 13", "result": "gained essentially no weight"}, {"measurement": "further weight gain after start of injections", "setting": "[2]; male mice, high-fat diet, 0.5 mg/kg s.c. daily only from week 13 to 19", "result": "Essentially no further weight gain"}, {"measurement": "body weight gain", "setting": "[2]; mice treated continuously (week 9 to 19), regardless of high-fat or low-fat diet", "result": "minimal"}]}
{"smiles": "CCNC(=O)[C@H]1O[C@@H](n2cnc3c(N)ncnc32)[C@H](O)[C@@H]1O", "note": "[NECA, 5′-N-ethylcarboxamidoadenosine]", "values": [{"measurement": "weight gain compared to the control group", "setting": "[3]; high-fat diet from day 0, daily s.c. 0.02 mg/kg/day", "result": "dramatic reduction in weight gain"}]}
{"smiles": "CCNC(=O)[C@H]1O[C@@H](n2cnc3c(N)nc(NCCc4ccc(CCC(=O)NCCN)cc4)nc32)[C@H](O)[C@@H]1O", "note": "[APEC, 2-[4-(2-aminoethylaminocarbonylethyl)phenylethylamino]-5′-N-ethylcarboxamidoadenosine]", "values": [{"measurement": "weight gain compared to the control group", "setting": "[3]; high-fat diet from day 0, daily s.c. 0.25 mg/kg/day", "result": "dramatic reduction in weight gain"}]}
